From publication PMC6151865, “Targeting protein biotinylation enhances tuberculosis chemotherapy” (Science Translational Medicine, 2018)
Read-outs that look alike come from different tables or passages of the source.

Tests used:
Rv3406 [1] = molecular target: T1, Rv3406 (Mycobacterium tuberculosis, UniProt P9WKZ1); details: substrate; ref Neres et al., ACS Chem Biol 10, 705-714 (2015); cited from earlier work
Mtb [2] = format: cell-based, Mycobacterium tuberculosis
Mtb [3] = test: MIC measurements (carbon sources, biotin in medium)
in vivo [4] = details: CD-1, mouse
[5] = Tolerability at ascending intraperitoneal doses; format: in vivo, CD-1 mice
Description: Groups of three mice received Bio-AMS (50, 100, 250, or 500 mg/kg) via intraperitoneal injection at 4 ml/kg. They were observed continuously for the first half-hour after injection and then at 24 hours after injection.
Table S5. Tolerability of Bio-AMS at ascending intraperitoneal doses in CD-1 mice.a Bio-AMS 50mg/kg (IP) 4 ml/kg
Mouse # Weight ½ h Observation 24h Observation
Bio-AMS 100mg/kg (IP) 4 ml/kg
Bio-AMS 250mg/kg (IP) 4 ml/kg
Bio-AMS 500mg/kg (IP) 4 ml/kg […]
would be tolerated in mice (with plasma concentrations above the MIC for a minimum of 40-50% of the dosing interval). For this, we conducted a dose escalation tolerab ility study in which groups of three mice received ascending IP doses of Bio-AMS. Only the lowest dose of 50 mg/kg was tolerated up to 24 h post injection. Animal weights remained unchanged during the 24 h period post-injection at all doses. Assuming linear pharmacokinetics, a 50 mg/kg dose would deliver plasma concentrations above the MIC for a very small fraction of the dosing

Rv3406 [6] = molecular target: T1, Rv3406
[7] = in vivo
Mtb H37Rv strain = test: Combination of Bio-AMS with rifampicin, ethambutol, isoniazid in liquid culture; format: cell-based, Mycobacterium tuberculosis; details: for bactericidal activity when used individually: Bio-AMS at 1 µM, rifampicin at 6.5 nM, ethambutol at 12.5 µM; for change of MIC by sublethal dose of Bio-AMS: Bio-AMS 1 µM, 3 days pre-exposure; for Mtb inoculum killed: after 20 days of treatment
Mtb [8] = test: Acid-fast (Kinyoun) staining after Bio-AMS exposure; format: cell-based, Mycobacterium tuberculosis; details: lethal dose (5 µM); after 10 days of exposure
Mtb in mouse macrophages = test: Intracellular Mtb in mouse bone marrow-derived macrophages; details: treated 24 hours after infection
[9] = test system: non-replicating Mtb H37Rv strain; test: Viability of non-replicating Mtb (PBS starvation); format: cell-based, Mycobacterium tuberculosis; details: starvation in PBS
[10] = Rifampicin-doxycycline interaction study; details: plasma; for AUC(0-t): female, CD-1, mouse, in vivo, po, Doxycycline AUC[0-8] Mean (SD); for Doxycycline Cmin Mean (SD): daytime
in vivo [11] = details: female, NZW, rabbit, lung lesions and plasma, oral
[12] = 7 days
Mtb ∆bioA = format: cell-based, Mycobacterium tuberculosis
in vivo [13] = details: female, CD-1, mouse, po, 10 mg/kg
bioA TetON-1 Mtb strain = test system: bioA TetON-1 Mtb strain; design: species or system C57BL/6 mice; details: in vivo
[14] = test system: [H][C@]12CS[C@@H](CCCCC(=O)NS(=O)(=O)NC[C@H]3O[C@@H](n4cnc5c(N)ncnc54)[C@H](O)[C@@H]3O)[C@@]1([H])NC(=O)N2; test: purified protein, by the assay type; details: pH 7.5; 25.0 °C
[15] = different carbon sources at 0.1%
[16] = rifampicin single dose plus doxycycline in diet (2000 ppm, 7 days)
[17] = rifampicin steady state + doxycycline in diet

CCCCC(CC)COS(=O)(=O)[O-].[Na+] (centres unmarked) [2-EHS, 2-ethylhexyl sulfate]
Km (Rv3406 [1]): 8.8 ± 0.5 µM
kcat (Rv3406 [1]): 0.32 ± 0.015 s⁻¹

Nc1ncnc2c1ncn2[C@@H]1O[C@H](CNS(=O)(=O)NC(=O)CCCC[C@@H]2SC[C@@H]3NC(=O)N[C@@H]32)[C@@H](O)[C@H]1O [Bio-AMS, 5′-[N-(d-biotinoyl)sulfamoyl]amino-5′-deoxyadenosine]
bactericidal concentration (Mtb [2]): 5 µM
killing kinetics (Mtb [2]): kinetics similar to that of isoniazid
viability of the culture (Mtb [2]): < 25 CFU/ml
growth of Mtb H37Ra (CFU) (Mtb H37Ra): prevented growth
impact of primary carbon source on MIC (Mtb [3]; [15]): little impact
impact of primary carbon source on minimal bactericidal concentration (Mtb [3]; [15]): little impact
increase of MIC by addition of biotin to the growth medium (Mtb [3]; with versus without biotin): fourfold
bioavailability (in vivo [4]; 25 mg/kg): 2%
AUC(0-t) (in vivo [4]; ip, 25 mg/kg): 31.8 µM·h
Cmax (in vivo [4]; ip, 25 mg/kg): 61.1 µM
AUC(0-t) (in vivo [4]; iv, 5 mg/kg): 2.5 µM·h
Cmax (in vivo [4]; iv, 5 mg/kg): 8.72 µM
AUC(0-t) (in vivo [4]; po, 25 mg/kg): 0.26 µM·h
Cmax (in vivo [4]; po, 25 mg/kg): 0.11 µM
24h Observation ([5]; 50 mg/kg IP, mouse 1): Normal activity
½ h Observation ([5]; 50 mg/kg IP, mouse 1): Active, grooming
24h Observation ([5]; 50 mg/kg IP, mouse 2): Scruffy; some lethargic
½ h Observation ([5]; 50 mg/kg IP, mouse 2): Active, grooming
24h Observation ([5]; 50 mg/kg IP, mouse 3): Normal activity
½ h Observation ([5]; 50 mg/kg IP, mouse 3): Active, grooming
24h Observation ([5]; 100 mg/kg IP, mouse 4): Normal activity; grooming
½ h Observation ([5]; 100 mg/kg IP, mouse 4): Normal activity
24h Observation ([5]; 100 mg/kg IP, mouse 5): Dead
½ h Observation ([5]; 100 mg/kg IP, mouse 5): Normal activity
24h Observation ([5]; 100 mg/kg IP, mouse 6): Euthanized
½ h Observation ([5]; 100 mg/kg IP, mouse 6): Normal activity
24h Observation ([5]; 250 mg/kg IP, mouse 7): Dead
½ h Observation ([5]; 250 mg/kg IP, mouse 7): Heavy breathing
24h Observation ([5]; 250 mg/kg IP, mouse 8): Dead
½ h Observation ([5]; 250 mg/kg IP, mouse 8): Scruffy, heavy breathing
24h Observation ([5]; 250 mg/kg IP, mouse 9): Euthanized
½ h Observation ([5]; 250 mg/kg IP, mouse 9): Normal activity
24h Observation ([5]; 500 mg/kg IP, mouse 10): Near death; scruffy; pale color
½ h Observation ([5]; 500 mg/kg IP, mouse 10): Scruffy, heavy breathing
24h Observation ([5]; 500 mg/kg IP, mouse 11): Euthanized
½ h Observation ([5]; 500 mg/kg IP, mouse 11): Scruffy, heavy breathing
24h Observation ([5]; 500 mg/kg IP, mouse 12): Euthanized
½ h Observation ([5]; 500 mg/kg IP, mouse 12): Scruffy, heavy breathing
animal weights during the 24 h period post-injection ([5]; IP, all doses): unchanged
dose tolerated up to 24 h post injection ([5]; IP, doses of 50, 100, 250, 500 mg/kg tested): 50 mg/kg
tolerability of the dose required for concentrations above the MIC for a substantial fraction of the dosing interval ([5]; mice): not tolerated
toxicity for mouse macrophages (mouse macrophages): did not detect toxicity
mitochondrial toxicity (HepG2 cells): no signs of mitochondrial toxicity
shift in IC50, glucose medium compared to galactose medium (HepG2 cells; human): 1.05 fold
KM value relative to 2-EHS (higher) (Rv3406 [6]): 48 fold
kcat value relative to 2-EHS (lower) (Rv3406 [6]): ~1300 fold
F, bioavailability relative to IV exposure ([7]; CD-1, mouse, 25 mg/kg): 241%
elimination in mice ([7]; mouse): rapidly eliminated
exposure ([7]; mouse, ip): good exposure
exposure ([7]; mouse, po): low
bactericidal activity when used individually (Mtb H37Rv strain): none of the compounds were bactericidal
acid-fastness (Mtb [8]): most bacteria no longer stained as acid-fast
growth of Mtb in infected mouse macrophages (Mtb in mouse macrophages): inhibited growth of Mtb in a concentration-dependent manner
Mtb viability, non-replicating [9]: no reduction in Mtb viability

C[C@H]1c2cccc(O)c2C(=O)C2=C(O)[C@]3(O)C(=O)C(C(N)=O)=C(O)[C@@H](N(C)C)[C@@H]3[C@@H](O)[C@@H]21 [doxycycline]
decrease in exposure ([10]; caused by seven daily doses of rifampicin, 8-hour period, P < 0.05): ~ 30%
AUC(0-t) [10, 16]: 4780 ng·h/mL
AUC(0-t) [10, 17]: 3360 ng·h/mL
Doxycycline Cmin Mean (SD) [10, 16]: 0.36 (0.09) g/mL
Doxycycline Cmin Mean (SD) [10, 17]: 0.26 (0.02) g/mL
Kp at 7 days (in vivo [11]; 200 ppm): 6.1
Kp at 7 days (in vivo [11]; 400 ppm): 3.7
Average lesion/plasma ratio (SD) ([12]; animal 1069, 200 ppm in chow, 44 lesions): 3.9 (2.6)
Average lesion/plasma ratio (SD) ([12]; animal 1071, 400 ppm in chow, 19 lesions): 5.4 (2.5)

CC[C@@H](CO)NCCN[C@@H](CC)CO [ethambutol]
change of MIC by sublethal dose of Bio-AMS (Mtb H37Rv strain): reduced the MIC
bactericidal activity when used individually (Mtb H37Rv strain): none of the compounds were bactericidal
Mtb inoculum killed (Mtb H37Rv strain; ethambutol 12.5 µM combined with Bio-AMS 1 µM): > 99.9%
change of MIC with decreasing concentrations of biotin (Mtb ∆bioA): unchanged

NNC(=O)c1ccncc1 [isoniazid]
change of MIC by sublethal dose of Bio-AMS (Mtb H37Rv strain): unchanged

CO[C@H]1/C=C/O[C@@]2(C)Oc3c(C)c(O)c4c(O)c(c(/C=N/N5CCN(C)CC5)c(O)c4c3C2=O)NC(=O)/C(C)=C\C=C\[C@H](C)[C@H](O)[C@@H](C)[C@@H](O)[C@@H](C)[C@H](OC(C)=O)[C@@H]1C [rifampicin]
AUC(0-t) (in vivo [13]; Rifampicin AUC[0-8] Mean (SD)): 30700 ng·h/mL
Cmax (in vivo [13]; Rifampicin Cmax Mean (SD)): 5210 ng/mL
effect of co-administration of doxycycline on exposure [10]: not affected
Rifampicin Cmax Mean (SD) [10, 17]: 5.49 (2.14) g/mL
killing of Mtb bioA TetON-1 in mouse lungs (bioA TetON-1 Mtb strain): more than 200 fold
CFU from lungs, BioA expression reduced (no doxycycline) compared to constitutive (bioA TetON-1 Mtb strain; mouse): fewer CFU
change of MIC by sublethal dose of Bio-AMS (Mtb H37Rv strain): reduced the MIC
bactericidal activity when used individually (Mtb H37Rv strain): none of the compounds were bactericidal
Mtb inoculum killed (Mtb H37Rv strain; rifampicin 6.5 nM combined with Bio-AMS 1 µM): more than 99.7%
amount accumulated in Mtb ∆bioA compared to wild-type (Mtb ∆bioA): increased amounts of rifampicin
change of MIC with decreasing concentrations of biotin (Mtb ∆bioA): decreased the MIC

O=C(O)CCC(=O)C(=O)O [α-KG, alpha-ketoglutarate]
Km (Rv3406 [1]): 9.4 ± 1.2 µM
kcat (Rv3406 [1]): 0.363 ± 0.0167 s⁻¹

Rv3406 (Mycobacterium tuberculosis H37Rv)
Km [14]: 424 ± 136 µM
kcat [14]: 0.00025 ± 1.7e-05 s⁻¹
kcat/Km [14]: 0.583 ± 0.12 M⁻¹ s⁻¹
